Source: the supplement of paper PMC10307832

Experiments:
Assay in all cases: relative viability (nuclei count vs DMSO), 5 days (fraction); higher = more cells survive
XMD8-85 + Decitabine = compound: CN1CCN(CC1)C2=CC(=C(C=C2)NC3=NC=C4C(=N3)N(C5=CC=CC=C5C(=O)N4C)C)OC [XMD8-85] + Nc1ncn([C@H]2C[C@H](O)[C@@H](CO)O2)c(=O)n1 [Decitabine] (partner 2 µM)
Summary of the method: (§1)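 For relative viability, nuclei counts in treated wells were divided by those in vehicle wells. Lung cancer cell lines had been pin-tool dosed in 1536-well plates the day after seeding and cultured for 5 days, then fixed and stained in one step (final 0.05% Triton X-100, 1% formaldehyde, 1 ug/ml Hoechst) and imaged at 4×. Doses were one drug alone or a fixed anchor-drug dose plus five library-drug doses (not always all listed) in √10 steps, and values are duplicate-plate medians.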

XMD8-85 + Bortezomib = compound: CN1CCN(CC1)C2=CC(=C(C=C2)NC3=NC=C4C(=N3)N(C5=CC=CC=C5C(=O)N4C)C)OC [XMD8-85] + CC(C)C[C@H](NC(=O)[C@H](Cc1ccccc1)NC(=O)c1cnccn1)B(O)O [Bortezomib] (partner 0.002 µM)
Summary of the method: as §1

4EGI-1 + Dasatinib = compound: O=C(O)C(Cc1ccccc1[N+](=O)[O-])=NNc1nc(-c2ccc(Cl)c(Cl)c2)cs1 (mixture of isomers) [4EGI-1] + Cc1nc(Nc2ncc(C(=O)Nc3c(C)cccc3Cl)s2)cc(N2CCN(CCO)CC2)n1 [Dasatinib] (partner 0.075 µM)
Summary of the method: as §1

4EGI-1 + Luminespib = compound: O=C(O)C(Cc1ccccc1[N+](=O)[O-])=NNc1nc(-c2ccc(Cl)c(Cl)c2)cs1 (mixture of isomers) [4EGI-1] + CCNC(=O)c1noc(-c2cc(C(C)C)c(O)cc2O)c1-c1ccc(CN2CCOCC2)cc1 [Luminespib] (partner 0.01 µM)
Summary of the method: as §1

Row | Cell Line | relative viability (XMD8-85 + Decitabine; first compound 0.08 µM) | relative viability (XMD8-85 + Decitabine; first compound 0.253 µM) | relative viability (XMD8-85 + Decitabine; first compound 2.53 µM) | relative viability (XMD8-85 + Decitabine; first compound 8 µM) | relative viability (XMD8-85 + Bortezomib; first compound 0.08 µM) | relative viability (XMD8-85 + Bortezomib; first compound 0.253 µM) | relative viability (XMD8-85 + Bortezomib; first compound 0.8 µM) | relative viability (XMD8-85 + Bortezomib; first compound 2.53 µM) | relative viability (4EGI-1 + Dasatinib; first compound 0.5 µM) | relative viability (4EGI-1 + Dasatinib; first compound 1.581 µM) | relative viability (4EGI-1 + Dasatinib; first compound 5 µM) | relative viability (4EGI-1 + Dasatinib; first compound 15.81 µM) | relative viability (4EGI-1 + Dasatinib; first compound 50 µM) | relative viability (4EGI-1 + Luminespib; first compound 0.5 µM) | relative viability (4EGI-1 + Luminespib; first compound 1.581 µM) | relative viability (4EGI-1 + Luminespib; first compound 5 µM) | relative viability (4EGI-1 + Luminespib; first compound 15.81 µM) | relative viability (4EGI-1 + Luminespib; first compound 50 µM) | relative viability (XMD8-85 + Decitabine; first compound 0.8 µM) | relative viability (XMD8-85 + Bortezomib; first compound 8 µM)
1 | NCI-H1666 | 0.703 | 0.724 | 0.692 | 0.68 | 0.831 | 0.754 | 0.745 | 0.735 | 0.838 | 0.717 | 0.834 | 0.566 | 0.374 | 1.1 | 0.982 | 1.04 | 0.812 | 0.397 | – | –
2 | NCI-H2023 | 0.176 | 0.198 | 0.244 | 0.227 | 0.881 | 0.992 | 1.07 | 1.13 | 0.599 | – | 0.605 | 0.226 | 0.0859 | 0.897 | 0.544 | 0.798 | 0.203 | 0.0714 | 0.25 | 0.575
3 | NCI-H322M | 0.688 | 0.659 | 0.644 | 0.606 | 1.36 | 1.22 | 1.3 | 1.46 | 0.23 | – | 0.243 | 0.237 | 0.256 | 1 | – | 0.855 | 0.727 | 0.321 | 0.707 | 1.04
4 | NCI-H838 | 0.572 | 0.46 | 0.449 | 0.354 | 0.714 | 0.696 | 1.02 | 0.892 | 0.322 | – | 0.245 | 0.267 | 0.19 | 0.335 | – | 0.226 | 0.229 | 0.144 | 0.476 | 0.489
5 | ChaGo-K-1 | 0.553 | 0.521 | 0.525 | 0.45 | 0.905 | 1.07 | 1.18 | 1.37 | 0.661 | 0.629 | 0.639 | 0.48 | 0.25 | 0.631 | 0.38 | 0.62 | 0.517 | 0.491 | 0.551 | 0.357
